Laboratory results as given in ChEMBL document CHEMBL4609979, “Design of enkephalin modifications protected from brain extracellular peptidases providing long-term analgesia” (Bioorg Med Chem, 2020).
Active and inactive are the calls of the source. No cut-off for these calls is given here. Where a SMILES comes first, the peptide text is derived from it. [ ]: non-standard residue; d: D form. βAla = NCCC(=O)O

Assays:
[1] = Stability in bovine brain synaptosomes assessed as compound remaining at 0.35 mM incubated for 30 mins by thin layer chromatography analysis; format: ADME, subcellular, Bos taurus; details: cattle
Rattus norvegicus = assay: Analgesic activity in Wistar rat assessed as increase in tail flick latency at 0.4 uM/kg administered intranasally and measured upto 120 mins by tail-flick test; format: functional, organism-based
[2] = Stability in bovine brain synaptosomes assessed as compound remaining at 0.35 mM incubated for 3 hrs by thin layer chromatography analysis; format: ADME, subcellular, Bos taurus; details: cattle; for remaining at 3 h, 350 µM: brain synaptosomes, read-out: Stability
[3] = Acute toxicity in Wistar rat assessed as animal death at 2 uM/kg administered intranasally and measured after 20 mins; details: in vivo, inhaled_or_intranasal
[4] = Acute toxicity in Wistar rat assessed as nausea at 2 uM/kg administered intranasally and measured after 20 mins; details: in vivo, inhaled_or_intranasal
[5] = Acute toxicity in Wistar rat assessed as animal activity at 2 uM/kg administered intranasally and measured after 20 mins; details: in vivo, inhaled_or_intranasal
[6] = Acute toxicity in Wistar rat assessed as sleep at 2 uM/kg administered intranasally and measured after 20 mins; details: in vivo, inhaled_or_intranasal
[7] = Acute toxicity in Wistar rat assessed as irritability at 2 uM/kg administered intranasally and measured after 20 mins; details: in vivo, inhaled_or_intranasal
[8] = Acute toxicity in Wistar rat assessed as appetite at 2 uM/kg administered intranasally and measured after 20 mins; details: in vivo, inhaled_or_intranasal
[9] = Acute toxicity in Wistar rat assessed as heart rate at 2 uM/kg administered intranasally and measured after 20 mins; details: in vivo, inhaled_or_intranasal
[10] = Acute toxicity in Wistar rat assessed as arterial pressure at 2 uM/kg administered intranasally and measured after 20 mins; details: in vivo, inhaled_or_intranasal
[11] = Acute toxicity in Wistar rat assessed as pathological abnormalities in tissues at 2 uM/kg administered intranasally and measured after 20 mins; details: in vivo, inhaled_or_intranasal
[12] = Toxicity in Wistar rat assessed as effect on memory by measuring average distance that has been travelled to previously placed platform at 0.4 uM/kg administered intranasally by Morris water maze test; details: in vivo, inhaled_or_intranasal
[13] = Acute toxicity in Wistar rat assessed as pathological abnormalities in organs at 2 uM/kg administered intranasally and measured after 20 mins; details: in vivo, inhaled_or_intranasal

CSCC[C@H](NC(=O)[C@H](Cc1ccccc1)NC(=O)CNC(=O)CNC(=O)[C@@H](N)Cc1ccc(O)cc1)C(=O)O
Stability ([1]; 0.5 h, 350 µM): Unstable | Activity (Rattus norvegicus): Active

C[C@H](N)C(=O)N[C@@H](CCCCN)C(=O)N[C@@H](Cc1ccccc1)C(=O)O (H-Ala-Lys-Phe-OH)
remaining at 0.5 h, 350 µM ([1]; brain synaptosomes, read-out: Stability): 0%

C[C@H](NC(=O)CCN)C(=O)N[C@@H](CCCCN)C(=O)N[C@@H](Cc1ccccc1)C(=O)NCCC(=O)O (H-[βAla]AKF[βAla]-OH)
Stability ([2]; 3 h, 350 µM): Stable

NCCC(=O)N[C@@H](Cc1ccc(O)cc1)C(=O)NCC(=O)N[C@@H](Cc1ccccc1)C(N)=O (H-[βAla]YGF-NH2)
remaining at 3 h, 350 µM [2]: 75% | Activity (Rattus norvegicus): inactive

NCCC(=O)N[C@@H](Cc1ccc(O)cc1)C(=O)NCC(=O)NCC(=O)N[C@@H](Cc1ccccc1)C(N)=O (H-[βAla]YGGF-NH2)
remaining at 3 h, 350 µM [2]: 75% | Activity (Rattus norvegicus): Active | Activity [3]: Non-Toxic | Activity [4]: Non-Toxic | Activity [5]: Non-Toxic | Activity [6]: Non-Toxic | Activity [7]: Non-Toxic | Activity [8]: Non-Toxic | Activity [9]: Non-Toxic | Activity [10]: Non-Toxic | Activity [11]: Non-Toxic | Activity [12]: Non-Toxic | Activity [13]: Non-Toxic

CSCC[C@H](NC(=O)[C@H](Cc1ccccc1)NC(=O)CNC(=O)CNC(=O)[C@H](Cc1ccc(O)cc1)NC(=O)CCN)C(=O)NCCC(=O)O (H-[βAla]YGGFM[βAla]-OH)
remaining at 3 h, 350 µM [2]: 55% | Activity (Rattus norvegicus): Active
